Values quoted from earlier work, collected in patent publication US10954181B2, “Process for selectively recovering a phenolic compound from feedstock comprising bio-crude and/or bio-oil” (Research Triangle Institute, priority 2018, dated 2021).

settings: 25° C., in water; phenolic compounds present in biocrude

Q: With `Cc1cccc(O)c1C` [2,3-dimethylphenol] as the compound, how does the “pKa at 25° C. (in water)” value read?
A: 10.42

Q: For `Cc1cc(C)c(O)cc1C` [2,4,5-trimethylphenol], which “pKa at 25° C. (in water)” value is on record?
A: 10.57

Q: With `Cc1cc(C)c(O)c(C)c1` [2,4,6-trimethylphenol] as the compound, how does the “pKa at 25° C. (in water)” value read?
A: 10.88

Q: Which “pKa at 25° C. (in water)” value does the source give for `Cc1ccc(O)c(C)c1` [2,4-dimethylphneol] here?
A: 10.6

Q: With `Cc1cccc(C)c1O` [2,6-dimethylphenol] as the compound, how does the “pKa at 25° C. (in water)” value read?
A: 10.66

Q: With `C=CCc1cc(C)ccc1O` [2-allyl-4-methylphenol] as the compound, how does the “pKa at 25° C. (in water)” value read?
A: 10.59

Q: For `CCc1ccccc1O` [2-ethylphenol], which “pKa at 25° C. (in water)” value is on record?
A: 10.27

Q: With `Cc1cc(C)cc(O)c1` [3,5-dimethylphenol] as the compound, how does the “pKa at 25° C. (in water)” value read?
A: 10.38

Q: With `CCc1cccc(O)c1` [3-ethylphenol] as the compound, how does the “pKa at 25° C. (in water)” value read?
A: 9.9

Q: With `Cc1ccc(O)c(O)c1` [4-methylcatechol] as the compound, how does the “pKa at 25° C. (in water)” value read?
A: 9.91

Q: Which “pKa at 25° C. (in water)” value does the source give for `CCCc1ccc(O)cc1` [4-propylphenol] here?
A: 9.98

Q: For `CCc1ccc(O)c(OC)c1` [Ethylguaiacol], which “pKa at 25° C. (in water)” value is on record?
A: 10.3

Q: For `C=CCc1ccc(O)c(OC)c1` [Eugenol], which “pKa at 25° C. (in water)” value is on record?
A: 10.19

Q: With `COc1ccccc1O` [Guaiacol] as the compound, how does the “pKa at 25° C. (in water)” value read?
A: 9.98

Q: With `COc1cc(CC(C)=O)ccc1O` [Guaiacylacetone] as the compound, how does the “pKa at 25° C. (in water)” value read?
A: 9.88

Q: With `COc1cc(CC(=O)O)ccc1O` [Homovanillic acid] as the compound, how does the “pKa at 25° C. (in water)” value read?
A: 4.36

Q: For `O=C(CO)c1ccccc1` [Hydroxyacetophenone], which “pKa at 25° C. (in water)” value is on record?
A: 10.16

Q: Which “pKa at 25° C. (in water)” value does the source give for `CCCc1ccc(O)c(OC)c1` [Propylguaiacol (Dihydroeugenol), Propylguaiacol] here?
A: 10.29

Q: For Benzenediol (catechol), which “pKa at 25° C. (in water)” value is on record?
A: 9.96

same assay, conditions: Table 1, chemical information of targeted methoxyphenols

Q: With `CCc1ccc(O)c(OC)c1` [Ethylguaiacol] as the compound, how does the pKa read?
A: 10.3

Q: Which pKa does the source give for `COc1ccccc1O` [Guaiacol] here?
A: 9.98

Q: For `CCCc1ccc(O)c(OC)c1` [Propylguaiacol (Dihydroeugenol), Propylguaiacol], which pKa is on record?
A: 10.29
